In patent publication US8962860B2, “Inhibitors of glutaminyl cyclase” (Probiodrug AG, priority 2008, dated 2015):

Columns and labels:
[1] = Log BB screen: brain compound level and log BB in mice; type: in vivo; conditions: single i.v. injection; for concentration at 1 h: iv, 10 mg/ml, mouse, brain, read-out: Brain concentration 1 h after application
Method: Screening for brain compound level and log BB was done in mice. Compound was applied by a single i.v. injection. […] At least 3 animals were analyzed per compound. Animals were sacrificed 1 h after compound application and blood was collected by heart puncture. Serum was prepared from blood. Animals were perfused with PBS and brains were collected. Compound level in serum and brain were determined by HPLC-MS/MS analysis. Log BB were calculated as follows: [formula]

[2] = tested on: pGlu-Aβ3-42 in transgenic (tg) mice, which overexpress human AβQ3-42; assay: Treatment of Aβ-transgenic mice, pGlu-Aβ ELISA of brain homogenates; type: in vivo
Method: 6 (1-(1H-benzo[d]imidazol-5-yl)-5-(4-propoxyphenyl)imidazolidine-2,4-dion). Example compound 6 was implemented into the chow and the transgenic animals were treated orally. The treatment is specified in the table below. The mice used in this study were produced as described in WO 2009/034158.
Following treatment, tg mice were sacrificed, the brains were removed from the skull, flushed with ice cold saline and placed shortly on filter paper. Brain tissues without cerebellum were homogenized (Dounce homogenizer) in 2.5 ml 2% SDS in distilled water (SDS wash fraction), sonificated and centrifuged at 75,500×g for 1 hour at 4° C. The supernatant was removed and the pellet resuspended in 0.5 ml 70% formic acid (formic acid fraction) and neutralized by addition of 9.5 ml 1 M Tris solution. The formic acid (FA) is considered as the homogenate containing the highly insoluble Aβ peptides, including pGlu-Aβ species (Kawarabayashi et al., (2001), J. Neurosci. 21, 372-381). Aβx-40, Aβx-42 and Aβ3(pE)-42 specific sandwich ELISAs (all from IBL, Hamburg, Germany) were performed according to the manufacturer's manual. Samples were diluted to fit within the range of the standard curve using EIA buffer, which is supplied with the ELISA kits.

concentration at 1 h [1]	logBB mouse 1 h after i.v. injection [1]	SMILES	pGlu-Aβ3-42 concentration in formic acid extracts ([2]; tg mice treated orally via chow (4.8 g/kg) for two months, vs placebo)	pGlu-Aβ3-42 concentration in formic acid extracts, brainstem ([2]; tg mice treated orally via chow for two months, brainstem)
38.2 ng/g	−2.5	O=C1NC(=O)N(c2ccc3[nH]cnc3c2)C1c1ccc(Cl)c(C(F)(F)F)c1 (stereo not shown) [Example 7, 1-(1H-benzo[d]imidazol-5-yl)-5-(4-chloro-3-(trifluoromethyl)phenyl)imidazolidine-2,4-dione]	–	–
31.4 ng/g	−1.4	O=C1NC(=O)N(c2ccc3[nH]cnc3c2)C1c1ccc(Cl)cc1 (stereo not shown) [Example 13, 1-(1H-benzo[d]imidazol-5-yl)-5-(4-chlorophenyl)imidazolidine-2,4-dione]	–	–
20.2 ng/g	−1.6	O=C1NC(=O)N(c2ccc3[nH]cnc3c2)C1c1ccccc1Cl (stereo not shown) [Example 14, 1-(1H-benzo[d]imidazol-5-yl)-5-(2-chlorophenyl)imidazolidine-2,4-dione]	–	–
11.7 ng/g	−1.2	O=C1NC(=O)C2(Cc3ccccc3C2)N1c1ccc2[nH]cnc2c1 [Example 32, 3-(1H-benzimidazol-5-yl)-1,3′-dihydro-2H,5H-spiro[imidazolidine-4,2′-indene]-2,5-dione]	–	–

The remaining lines, values behind:

SMILES	concentration at 1 h [1]	logBB mouse 1 h after i.v. injection [1]	pGlu-Aβ3-42 concentration in formic acid extracts ([2]; tg mice treated orally via chow (4.8 g/kg) for two months, vs placebo)	pGlu-Aβ3-42 concentration in formic acid extracts, brainstem ([2]; tg mice treated orally via chow for two months, brainstem)
CCCOc1ccc(C2C(=O)NC(=O)N2c2ccc3[nH]cnc3c2)cc1 (racemic) [Example 6, 1-(1H-benzo[d]imidazol-5-yl)-5-(4-propoxyphenyl)imidazolidine-2,4-dione]	126 ng/g	−1.6	significant reduction	below the limit of detection
O=C1NC(=O)N(c2ccc3[nH]cnc3c2)C1c1ccc2nsnc2c1 (stereo not shown) [Example 1, 5-(benzo[c][1,2,5]thiadiazol-6-yl)-1-(1H-benzo[d]imidazol-5-yl)imidazolidine-2,4-dione]	118 ng/g	−0.67	–	–
Cc1ccc(O)c(C2C(=O)NC(=O)N2c2ccc3[nH]cnc3c2)c1 (stereo not shown) [Example 3, 1-(1H-benzo[d]imidazol-5-yl)-5-(2-hydroxy-5-methylphenyl)imidazolidine-2,4-dione]	17.1 ng/g	−1.42	–	–
